The target of data set [1] is T1, catechol-O-methyltransferase (Rattus norvegicus, UniProt P22734).
T1 sequence (P22734 1-221 isoform P22734-2): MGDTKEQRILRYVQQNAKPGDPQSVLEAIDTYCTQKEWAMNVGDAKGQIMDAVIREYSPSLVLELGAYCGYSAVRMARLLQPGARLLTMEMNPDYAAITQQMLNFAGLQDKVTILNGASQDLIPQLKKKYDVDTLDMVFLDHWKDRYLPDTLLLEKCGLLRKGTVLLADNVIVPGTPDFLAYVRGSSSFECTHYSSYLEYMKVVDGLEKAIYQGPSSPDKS
Nature of the data set: Protection of the catecholamines: incubation of catechol-O-methyltransferase with adrenalin and orthodiphenol (method of Axelrod). Type of data set: biochemical. The note with it: stoichiometric amounts of adrenalin and orthodiphenol, after 30 minutes. An excerpt:
Whether administered orally or parenterally they undergo in the organism a monomethylation on one of the two hydroxyl groups, as do all orthodiphenols, (J. Axelrod and M. J. Laroche, 1959, Science, 130, p 800). This monomethylation is due to the action of the catechol-O-methyltransferases (C.O.M.T.), S-adenosyl-L-methionine providing the methyl radicals (J. Axelrod and R. Tomchick, 1958, J. Biol. Chem. 233 p.702). This methylation occurs in the physiological catecholamines, for example, adrenalin, as well as in the synthetic orthodiphenols.
As methylation is a first stage in the destructive pathway, this competition serves to protect the natural catecholamines from early destruction, (J. M. Gazave, P. Canu, M. Baques, and F. Martin, 1971, Biochem and Experim. Biol., X p.89).
Using the techniques of Axelrod et al (op.cit.) it is possible to quantify this effect for various compounds, as the intensity of the effect varies, being dependent on the chemical composition and physical properties, especially the solubility of the compound.
By incubating a catechol-O-methyltransferase with stoichiometric amounts of adrenalin and an orthodiphenol according to the method of Axelrod, determining the quantity of adrenalin protected ie. non-methylated after 30 minutes the extent of the protection given by the product studied can be evaluated.

In the next data set the test system is mice. Nature of the data set: Anti-inflammation effect on vessels using croton oil on mice (technique of Bounameaux and Lecomto). Type of data set: in vivo. An excerpt:
Some of the compounds of the formula I have other interesting properties. Thus the anti-inflammation effect on vessels evaluated according to the technique of Y. Bounameaux and J. Lecomto, 1955, C.R. Soc.

The subject of another data set is guinea pig. Nature of the data set: Capillary resistance on the guinea pig (technique of Parrot and Canu). Type of data set: in vivo. The source says: Experiments on capillary resistance on the guinea pig using the technique of J-L. Parrot and P. Canu, 1964, Arch. […] (By comparison trioxyethylrutine gives an increase of 13%).
The nature of data set [2]: in vivo. The note with it: rat, acute toxicity, oral administration, rats, read-out: DL 50 A.O.
In another data set the test system is rats. The data set is described as follows: Research into the methemoglobinising properties (spectrophotometric technique of Evelyn and Malby). Type of data set: in vivo. The note with it: rats treated for 75 days at 0.20 g per kg body weight per day. The source says: Certain phenols, in particular pyrocatechol (1,2-dihydroxybenzene) and pyrogallol (1,2,3-trihydroxybenzene), when administered either orally or parenterally to an organism bring about a transformation of the oxyhaemoglobin of the blood to methemoglobin. In oxyhaemoglobin, the iron is in the ferrous state (Fe^+^+) and can transport oxygen; whereas in methemoglobin, the iron is in the ferric state (Fe ^+^+^+) and is unsuitable for transporting oxygen.
It therefore appeared necessary to try to discover if the polyhydroxy compounds used in the preparations of the present invention, in particular 2,3,3',4,4',5'-hexahydroxy benzophenone, would also act as methemoglobinising agents.
This study was carried out using pyrogallol as the comparative substance and the spectrophotometric technique of Evelyn and Malby, (in R. Lecoq, 1972, Analyses Medicales, 2, p.1699): […]

Data set [3] in a line: in vivo. The note with it: rat, ip, acute toxicity, intraperitoneal administration, rats, read-out: DL50 A. IP.

Where two headings read alike, the source gives them in different places.

With `O=C(c1ccc(O)c(O)c1)c1cccc(O)c1O` [2,3,3',4'-Tetrahydroxybenzophenone, 2,3,3',4'-tetrahydroxybenzophenone], the “protection of adrenalin (non-methylated)” value in data set [1] was not below 90%. In addition, in the data set with mice, the “anti-inflammation effect on vessels” value was “anti-inflammatory properties”. Further, the “increase in the capillary resistance” value with guinea pig is on record as 56%.

Regarding `O=C(c1cc(O)c(O)c(O)c1)c1ccc(O)c(O)c1O` [2,3,3',4,4',5'-Hexahydroxybenzophenone, 2,3,3',4,4',5'-hexahydroxybenzophenone], the “protection of adrenalin (non-methylated)” value in data set [1] is on record as 100%. For the same compound, the LD50 in “in vivo [2]” was 1420 mg/kg; in “in vivo [3]”, 355 mg/kg. Besides, the “methemoglobin in the blood” value in the data set with rats was “no methemoglobin could be detected”. Besides, the “increase in the capillary resistance” value in the data set on guinea pig turned out to be 82%.

Regarding `O=C(c1ccc(O)c(O)c1)c1ccc(O)c(O)c1O` [2,3,3',4,4'-pentahydroxybenzophenone], the “protection of adrenalin (non-methylated)” value in data set [1] is 100%.

As to `O=C(c1ccc(O)c(O)c1)c1cc(O)c(O)c(O)c1` [3,3',4,4' ,5'-pentahydroxybenzophenone, 3,3',4,4',5'-pentahydroxybenzophenone], the “protection of adrenalin (non-methylated)” value in data set [1] turned out to be 100%. For the same compound, the “anti-inflammation effect on vessels” value in the data set with mice is “anti-inflammatory properties”.

Regarding `O=C(C(=O)c1ccc(O)c(O)c1)c1ccc(O)c(O)c1` [3,3',4,4'-tetrahydroxybenzile, 3,3',4,4'-tetrahydroxybenzil], in data set [1], the “protection of adrenalin (non-methylated)” value came out at 100%.

As for `O=C(c1ccc(O)c(O)c1)c1ccc(O)c(O)c1` [3,3',4,4'-tetrahydroxybenzophenone], the “protection of adrenalin (non-methylated)” value in data set [1] is given as 100%.

On to `Oc1ccc(Cc2ccc(O)c(O)c2)cc1O` [di-(3,4-dihydroxyphenyl) methane, di-(3,4-dihydroxyphenyl)-methane], for which the “protection of adrenalin (non-methylated)” value in data set [1] is given as not below 90%.

For `C[C@@H]1O[C@@H](OC[C@H]2O[C@@H](Oc3c(-c4ccc(OCCO)c(OCCO)c4)oc4cc(OCCO)cc(O)c4c3=O)[C@H](O)[C@@H](O)[C@@H]2O)[C@H](O)[C@H](O)[C@H]1O` [trioxyethylrutine, reference compound], in the data set with guinea pig, the “increase in the capillary resistance” value worked out at 13%.

As for `O=C(Cc1ccc(O)c(O)c1)c1ccc(O)c(O)c1O` [β-(3,4-dihydroxyphenyl)-2,3,4-trihydroxyacetophenone], the LD50 was found to be 2000 mg/kg in the data set “in vivo [2]” and 730 mg/kg in “in vivo [3]”. The “increase in the capillary resistance” value in the data set on guinea pig is recorded as 34%.

`O=C(Cc1ccc(O)c(O)c1)c1ccc(O)c(O)c1` [β-(3,4-dihydroxyphenyl)-3,4-dihydroxyacetophenone]: the “protection of adrenalin (non-methylated)” value in data set [1] is not below 90%.
